Compound | melting point [°C]
Cc1cc(Oc2ccc(Cl)c(Cl)c2)ccc1S(C)(=O)=O | 154 to 156
CS(=O)(=O)CC(=O)Nc1c(C(=O)c2ccccc2)[nH]c2cc(Cl)ccc12 | 217 to 220
O=C(O)CCc1ccccc1C(=O)NCCc1ccccc1 | 106 to 108
NC(c1ccco1)P(O)O (configuration not stated) | 221
C=CC[C@@H](C(=O)N[C@H](C(=O)OCc1ccccc1)C(C)(C)C)[C@@H]1OC(C)(C)OC1=O | 67 to 70
COc1cc(C=CC(=O)c2cc(OC)c(OC)c(OC)c2)cc([N+](=O)[O-])c1O | 123 to 125
CC(C)Oc1ccc(CCCO)c(OCc2ccc(Cl)cc2Cl)c1 | 75.5 to 76.5
CC(=O)c1cc(NC(=O)NCCN(CCNC(=O)Nc2cc(C(C)=O)cc(C(C)=O)c2)CCNC(=O)Nc2cc(C(C)=O)cc(C(C)=O)c2)cc(C(C)=O)c1 | 197 to 198
Cc1nnn(CC(C)n2nnc3cc4c(=O)n(C5CC5)nnc4cc3c2=O)n1 (configuration not stated) | 157 to 160
COc1cccc(C23CCN(C)CC2Cc2c([nH]c(C(=O)N4CCCC4)c2C)C3)c1 (configuration not stated) | 171 to 173
[N-]=[N+]=NCc1ccc(C(=O)O)c(Cl)c1 | 87 to 88
COC(=O)c1cc(COc2c(OC)c3cocc(OC)c-3c2C(C)=O)ccc1COc1c(OC)c2cocc(OC)c-2c1C(C)=O | 87 to 89
Cc1ccc2c(c1)NC(NC(C)C)=NS2(=O)=O | 137 to 139
CCc1cc(C)cc(CC)c1C1=C(OCc2ccccc2)C2CC(C=CC(C)=O)CC2C1=O (configuration not stated) | 60
CC(C)(CO)Oc1ccc2c(c1)CCc1c-2ccc2c1CCC2(C)C | 122 to 125
Cc1c(C(=O)c2sc(Nc3ccc(S(N)(=O)=O)cc3)nc2N)sc2ccccc12 | 274 to 276
Cc1nc(-n2c(=O)ccc3cc(OCc4ccccc4)ccc32)sc1C(=O)NCc1ccccc1 | 213 to 216
O=[N+]([O-])c1ccc(Cl)c(N=Cc2ccccc2O)c1 | 168 to 169
CCN(CC)C(=O)c1ccccc1-c1ccc(OC)cc1 | 46 to 47
Cn1nc(-c2c(F)cccc2Cl)nc1-c1ccc(Oc2ccccc2)cc1Cl | 135 to 140
CS(=O)(=O)c1ccc(-c2cnn(-c3ccc(F)cc3)c(=O)c2COc2ccc(F)cc2)cc1 | 65 to 80

Compound | melting point [°C]
Cc1cc(Cc2cc(C(F)(F)F)cc(C(F)(F)F)c2)ccc1NC(=O)c1cccc(Cl)c1C(=O)N[C@@H](C)CS(C)(=O)=O | 155 to 158
CCCCCCCC1=CC(=O)N(c2ccccc2)C1=CBr | 63 to 65
CC(C)(C)OC(=O)N[C@H](Cc1cn(Cc2ccccc2)c2ccccc12)C(=O)O | 164 to 165
CN(C)C=C(C=O)c1cccc(C(F)(F)F)c1 | 128 to 132
CC(C)c1ccc(C(C)(C)C)c(O)c1C(=O)Nc1ccc(S(=O)(=O)C(F)(F)F)cc1Cl | 116
CN(Cc1ccc(Cl)cc1)S(=O)(=O)c1cn(S(=O)(=O)N(C)C)c(C#N)n1 | 162 to 163
CCCc1nc(C)n2nc(S)nc2c1Cc1ccc([N+](=O)[O-])cc1 | 210
CCOP(=O)(NC(=O)c1[nH]c2cc(OC)c(OC)cc2c1-c1ccc(OC)c(OC)c1)OCC | 217 to 219
Cc1nc(C(=O)Cl)c(CCc2ccccc2)o1 | 38 to 39
O=C1CCCc2nc3cc(F)ccc3c(NCc3ccccc3C(F)(F)F)c21 | 146 to 151
CCCc1c[nH]c(-c2ccc(Cl)cc2)c1-c1ccc(Cl)cc1 | 90 to 93
CCCCOC(=O)C=CCOc1ccc(F)c(C(N)=O)c1F | < 40
O=C1NC(=O)c2c1c(-c1ccccc1Cl)cc1c2c2cc(O)ccc2n1CCSc1ccccc1 | 262 to 264
CC(C)(C)c1coc(N)c1C#N | 86
COc1cc(Oc2cccc(C(F)(F)F)c2)nc(C(=O)NN=C(C)C)c1 | 134 to 136
CCN1c2ncc(CCc3ccc4ccccc4c3)cc2C(=O)N(C)c2ccc(F)nc21 | 112 to 114
CS(=O)c1cc(CCC(=O)O)cc(-c2nc(=O)c3ccccc3s2)n1 (configuration not stated) | 266
CCCCCCCCCCCCCCCCCNC(=O)OCCOCCOC(=O)N(Cc1ccccn1)C(=O)OCC | 57 to 59
COc1ccc(C=C(NC(=O)c2ccccc2)C(=O)O)cc1OC | 196 to 198
O=C(O)C(Cc1ccccc1)Oc1ccc2cc(-c3oc4ccccc4c3Br)ccc2c1Br (configuration not stated) | 206 to 209
O=C(O)CCCCCCCCCCCCCCCCC(=O)ON1C(=O)CCC1=O | 120 to 122

Compound | melting point [°C]
O=C1OC(=O)c2cc(N3C(=O)CCCC3=O)ccc21 | 220 to 222
CCCCCCCCCCCCCCCCCC(O)c1ccc(C2=NC(C)(C)CO2)c(Cl)c1 (configuration not stated) | 74 to 78
O=C1Nc2cc(CN3CC=C(c4ccc(Cl)cc4)CC3)cnc2N2CCC[C@@H]12 | 234 to 235
Cc1nc2ccc(Oc3ncccc3C(=O)NCc3ccc(C(C)(C)O)cc3)cc2s1 | 131 to 133
O=c1[nH]c2scnc2c2ccccc12 | > 200
CN(C)c1cccc(-c2cnc3[nH]cc(C(=O)C(C)(C)C)c3n2)c1 | 223 to 228
OCCNCCOc1ccc2cc3ccc(OCCNCCO)cc3nc2c1 | 125 to 127
CCOC(=O)c1cn(CCO)c2c(F)c(F)c(F)cc2c1=O | 175 to 177
CC(O)C1CCC2C3C=CC4=CC(=O)C5OC5C4(C)C3CCC12C (configuration not stated) | 206 to 207
CCCCCCCCCCCCCC[C@@H]1CO[C@@H](CO)C1 (relative stereo) | 27.1 to 27.7
CCCc1cc(-c2ccc(Cl)cc2)nc2c(C(=O)Nc3cccc(S(=O)(=O)NC(C)(C)CO)c3)cnn12 | 207 to 208
CC(C)Cn1cc(F)c(=O)[nH]c1=O | 173 to 174
Cc1nc2cc(/C=C/C(=O)NO)ccc2c(=O)n1CCc1ccccc1 | 227 to 229
Nc1nccc(OCc2ccccc2)c1N | 135 to 136
Cc1n[nH]c(C)c1-c1cncc(OC2SCC(O)C(O)C2O)c1 (configuration not stated) | 227
CC(C)[C@H](NC(=O)N(C)Cc1cscn1)C(=O)N[C@@H](Cc1ccccc1)C[C@H](O)[C@H](Cc1ccccc1)NC(=O)OCc1cccnc1 | 69 to 73
CC(C)c1ccc(C(=O)C(C)c2ccccc2)c(C(C)C)c1OS(N)(=O)=O (configuration not stated) | 142 to 144
COc1cc(C=O)ccc1OCc1coc(-c2ccco2)n1 | 138 to 139
O=c1c2ccc(Cl)cc2[nH]c2c(O)nn(Cc3cc4ccccc4s3)c(=O)c12 | > 300
CCOP(=O)(Cc1nc(Cl)cc(N2CCCC2)n1)OCC | 68 to 69

Further lines, results first:

melting point [°C] | Compound
112 to 115 | COc1ccc(OC)c(C=CCN2CCc3nc(N)sc3CC2)c1
153 to 154 | O=C1N(CC2CCCCC2)c2ccccc2C12COc1cc3c(cc12)OCO3 (configuration not stated)
138 to 140 | COc1ccc(C2CC(=O)Nc3ccccc3C(=O)C2)cc1 (configuration not stated)
146 to 148 | CC(C)(C)OC(=O)N1CCC(Oc2ccc(C3=NNC(=O)CC3)c(F)c2)CC1
126 to 127 | Cc1cc2c(cc1C(=O)Cc1ccccc1)CCC2
98 to 102 | COC(=O)N(C(C)C)C1C=C(C)CC=C1C(=O)c1ccc(F)cc1 (configuration not stated)
212 to 215 | CCn1cc(CN(C(=O)C2CCCc3c(O)cccc32)c2ccc(C(C)C)cc2)cn1 (configuration not stated)
267 to 268 | COc1cc2nc(N3CCC(N4C(=O)C(C)C(C)C4=O)CC3)nc(N)c2cc1OC (configuration not stated)
164 | Cc1ccc2c(N3CCN(CCc4cccc(N5CCNC5=O)c4)CC3)cccc2n1
184 to 186 | OCC1OC(n2c(NC3CC3)nc3cc(Cl)c(Cl)cc32)C(O)C1O (configuration not stated)
213 to 214 | CCOC(=O)c1cn(C2CC2)c2nc(N3CCC(n4ccnn4)CC3)c(F)cc2c1=O
244 to 246 | CC(=O)Nc1cccc2c1CCNC2=O
252 | O=C(Nc1cccc(S(=O)(=O)N2CCCC2)c1)c1cnn2c(C(F)(F)F)cc(-c3ccc(Cl)cc3)nc12
160 | CCNC(=O)Cc1ccc2ccn(C3CCN(CCc4ccc(F)cc4)CC3)c2c1
280 | Cn1c2ccc(Cl)cc2c(=O)n2nc(C(=O)O)cc12
116 to 117 | O=C(N1CCNCC1)N1CCC(c2ccncc2)CC1
52 to 53 | COc1ccc(S(=O)(=O)OCC(=O)CC(C)C2CCCCC2)cc1 (configuration not stated)
158 | Cn1c2c(c3cc(F)ccc31)C(=O)CCC2

melting point [°C] | Compound
152 to 154 | COc1cc(OC)c(C23CC4CC(CC(C4)C2)C3)cc1C=O
97 to 98 | O=C(c1ccc(F)cc1)c1ccc(Br)nc1
137 to 140 | N#CC(c1ccccc1)(c1ccccc1)[C@H]1CCCN(CCc2ccc3c(c2)CCO3)C1
204 | CC1C=NNc2c(-c3ccc(F)cc3)c(-c3ccncc3)nn21 (configuration not stated)
166 to 167 | O=C1Nc2ccccc2N(C(=O)N2CCCC(CCCN3CCCCC3)C2)c2ncccc21 (configuration not stated)
151 to 156 | O=C(Nc1ccc(-n2nc(C(F)(F)F)cc2C2CC2)nc1)c1cccc(F)c1F
112 to 114 | Fc1ccc(Nc2ncnc3cnc(N4CCC(CCC5CCNCC5)CC4)nc23)cc1Cl
113 to 116 | c1ccc(C2CNc3ccccc3O2)cc1 (configuration not stated)
105 to 106 | CCN(CC)C(=O)C1=C(C(=O)Nc2ccc(Cl)cc2F)CCCC1
157 | CCOc1ccc2c(c1)n(C1CCCCC1)c(=O)n2Cc1ccc(NC(=O)N(C)CCO)cc1OC
108 to 110 | COC(=O)c1cccc2c1Nc1cc(I)ccc1C2
163 to 165 | O=C1CCC(N2C(=O)c3cccc(OCc4ccc(CN5CCN(CC(F)(F)F)CC5)cc4)c3C2=O)C(=O)N1 (configuration not stated)
186 to 188 | Nc1nnc(N2CCOCC2)s1
144 to 146 | CN1CCCC1=NCCSc1c[nH]c2ccccc12
193 to 195 | O=C1CCC(N2C(=O)c3cccc(CNC(=O)Nc4cccc(Cl)c4)c3C2=O)C(=O)N1 (configuration not stated)
192 to 194 | Cn1nc(-c2cccc(C(F)(F)F)c2)c(O)c1C(=O)O
155 to 157 | O=C1NCCN1C1CCN(CCC2COc3ccccc3O2)CC1 (configuration not stated)
